Values of other authors in patent publication US11084814B2, “Pyrido[3, 4-d]pyrimidine derivative and pharmaceutically acceptable salt thereof” (Teijin Pharma Limited, priority 2016, dated 2021).

Tested on: neuronal death caused by local ischemia
Settings: rat cerebral infarction model; cited from earlier work

## CN1CC[C@H](c2c(O)cc(O)c3c(=O)cc(-c4ccccc4Cl)oc23)[C@H](O)C1 [flavopiridol]
  neuronal death: reduced
